Results on 24 compounds are retold here after patent US20260102387A1, “IMMUNOSUPPRESSIVE COMPOUNDS” (UNIVERSITÄT BASEL, priority 2022, published 2026).

One experiment deals with RBL cells. The experiment in a line: Cell viability by live-dead staining (cytotoxicity), flow cytometry. In kind it is cell-based, Rat. The following applies: Rattus norvegicus, RBL, cell viability via live/dead staining, 48-65 h, read-out: EC50 Toxicity. The procedure:
(§1) RBL cells expressing GFP under coronin 1 promoter and optionally with RBL cells expressing RFP under CMV promoter were mixed in equal numbers and incubated with the compounds at indicated concentrations for 48-65 h and analyzed by flow cytometry for alteration in coronin 1 promoter (GFP fluorescence), CMV promoter (RFP fluorescence) values. In addition, the cells were labelled with live-dead marker for assessing cell viability status by flow cytometry. Cycloheximide (CHX) serves as positive control and DMSO serves as negative controls. Effective Concentration (EC50) values for coronin 1 promoter inhibition via GFP fluorescence analysis, non-specific promoter inhibition via CMV promoter driven-RFP fluorescence analysis and cell viability via live/dead staining as a measure for toxicity in flow cytometry for compounds (10-22 and 50a-65a) are shown in Table 6 and Table 7. Based on the EC50 analysis of the inhibition of coronin 1 promoter driven GFP fluorescence the (4S,7R)-configurated eutomers were identified (Structures FIG. 9A-C). This is exemplified for compounds containing two stereocenters by eutomers 11c and 13a. […] Subsequent EC50 evaluations (Table 7) were performed with compound 13a as standard for relative potency normalized to a value of 1.00 (relative potency calculated as [EC50 GFP inhibition 13a]/[EC50 GFP inhibition compound of interest]).

A further experiment deals with coronin 1 promoter. The experiment in a line: EC50 analysis for coronin 1 promoter driven GFP inhibition by flow cytometry in RBL cells. Type of experiment: cell-based. The settings on record: for EC50: RBL cells, 48-65 h; for rel. potency GFP inhibition: [EC50 GFP inhibition 13a]/[EC50 GFP inhibition compound of interest], 13a = 1.00. How it is done: RBL cells that had been incubated with the indicated calcium channel blockers (amlodipine (3.125 μM) and verapamil (8 μM) concentrations for 48 h were analyzed by flow cytometry for any alteration in coronin 1 promoter driven GFP fluorescence. The results reveal no effect of calcium channel blockers on coronin 1 promoter activity (FIG. 4).
as §1

As for `COC(=O)C1=C(C)NC2=C(C(=O)C[C@H](c3ccccc3OC)C2)[C@@H]1c1cccc(O)c1` (stereo in doubt) [11a, methyl-4-(3-hydroxyphenyl)-7-(2-methoxyphenyl)-2-methyl-5-oxo-1,4,5,6,7,8-hexahydro-3-quinolinecarboxylate], the figures for the EC50 in the experiment on RBL cells and with coronin 1 promoter (flow cytometry) were above 9000 nM and 500 nM, respectively. On to `COc1ccccc1[C@H]1CC(=O)C2=C(C1)NC(C)=C(C(=O)OCC1CCCO1)[C@H]2c1cccc(O)c1` (stereo in doubt) [12a, tetrahydro-2-furanylmethyl-4-(3-hydroxyphenyl)-7-(2-methoxyphenyl)-2-methyl-5-oxo-1,4,5,6,7,8-hexahydro-3-quinolinecarboxylate], for which the EC50 in the experiment on RBL cells is above 30000 nM; in the experiment on coronin 1 promoter (RBL, flow cytometry), 200 nM.

For the compound `COC(=O)C1=C(C)NC2=C(C(=O)CC(c3ccccc3OC)C2)C1c1ccccc1O` (stereo not shown) [compound 16, methyl 4-(2-hydroxyphenyl)-7-(2-methoxyphenyl)-2-methyl-5-oxo-1,4,5,6,7,8-hexahydroquinoline-3-carboxylate], the EC50 with RBL cells is above 7500 nM; with coronin 1 promoter (RBL, flow cytometry) it was 900 nM. The like results for `COc1ccccc1[C@H]1CC(=O)C2=C(C1)NC(C)=C(C(=O)OC[C@@H]1CCCO1)[C@H]2c1cccc(O)c1` (racemic) [12c, tetrahydro-2-furanylmethyl-4-(3-hydroxyphenyl)-7-(2-methoxyphenyl)-2-methyl-5-oxo-1,4,5,6,7,8-hexahydro-3-quinolinecarboxylate] were, in that order, above 4000 nM and 200 nM.

For the compound `COc1ccccc1[C@H]1CC(=O)C2=C(C1)NC(C)=C(C(=O)OCC1CCCO1)[C@@H]2c1cccc(O)c1` (stereo in doubt) [12b, tetrahydro-2-furanylmethyl-4-(3-hydroxyphenyl)-7-(2-methoxyphenyl)-2-methyl-5-oxo-1,4,5,6,7,8-hexahydro-3-quinolinecarboxylate], the EC50 with RBL cells was above 30000 nM; in the experiment on coronin 1 promoter (RBL, flow cytometry) it was above 30000 nM. Consider `COC(=O)C1=C(C)NC2=C(C(=O)CC(c3ccccc3OC)C2)C1c1cccc(OC)c1` (stereo not shown) [compound 15, methyl 7-(2-methoxyphenyl)-4-(3-methoxyphenyl)-2-methyl-5-oxo-1,4,5,6,7,8-hexahydroquinoline-3-carboxylate], for which the EC50 was above 15000 nM in the experiment on RBL cells and 1200 nM in the experiment with coronin 1 promoter (RBL, flow cytometry). The like results for `COC(=O)C1=C(C)NC2=C(C(=O)C[C@H](c3ccccc3OC)C2)[C@H]1c1cccc(O)c1` (stereo in doubt) [11b, methyl-4-(3-hydroxyphenyl)-7-(2-methoxyphenyl)-2-methyl-5-oxo-1,4,5,6,7,8-hexahydro-3-quinolinecarboxylate] were, in that order, above 36000 nM and above 36000 nM.

Take `COc1ccccc1C1CC(=O)C2=C(C1)NC(C)=C(C(=O)OC(C)(C)C)C2c1cccc(O)c1` (stereo not shown) [compound 21, tert-butyl 4-(3-hydroxyphenyl)-7-(2-methoxyphenyl)-2-methyl-5-oxo-1,4,5,6,7,8-hexahydroquinoline-3-carboxylate]: the EC50 was above 2500 nM with RBL cells and 280 nM with coronin 1 promoter (RBL, flow cytometry). As to `COc1ccccc1[C@H]1CC(=O)C2=C(C1)NC(C)=C(C(=O)O[C@H]1CCOC1)[C@H]2c1cccc(O)c1` [50a, tetrahydrofuran-3-yl (4S, 7R)-4-(3-hydroxyphenyl)-7-(2-methoxyphenyl)-2-methyl-5-oxo-1,4,5,6,7,8-hexahydroquinoline-3-carboxylate], the “rel. potency GFP inhibition” value in the experiment on coronin 1 promoter was found to be 0.73.

Consider `COc1ccccc1[C@H]1CC(=O)C2=C(C1)NC(C)=C(C(=O)OC[C@H]1CCCO1)[C@H]2c1cccc(O)c1` [12g, tetrahydro-2-furanylmethyl (4S, 7R)-4-(3-hydroxyphenyl)-7-(2-methoxyphenyl)-2-methyl-5-oxo-1,4,5,6,7,8-hexahydro-3-quinolinecarboxylate], for which the “rel. potency GFP inhibition” value in the experiment on coronin 1 promoter came out at 1.00. Same read-out and setting: as for `COc1ccccc1[C@H]1CC(=O)C2=C(C1)NC(C)=C(C(=O)OC1CCCOCC1)[C@H]2c1cccc(O)c1` (mixture of isomers) [54a, oxepan-4-yl 4-(3-hydroxyphenyl)-7-(2-methoxyphenyl)-2-methyl-5-oxo-1,4,5,6,7,8-hexahydroquinoline-3-carboxylate], the figure is 0.88; as for `COc1ccccc1[C@H]1CC(=O)C2=C(C1)NC(C)=C(C(=O)OCC(C)(C)C)[C@H]2c1cccc(O)c1` [60a, neopentyl (4S, 7R)-4-(3-hydroxyphenyl)-7-(2-methoxyphenyl)-2-methyl-5-oxo-1,4,5,6,7,8-hexahydroquinoline-3-carboxylate], 0.20; as for `CCC(CC)COC(=O)C1=C(C)NC2=C(C(=O)C[C@H](c3ccccc3OC)C2)[C@@H]1c1cccc(O)c1` [61a, 2-ethylbutyl (4S, 7R)-4-(3-hydroxyphenyl)-7-(2-methoxyphenyl)-2-methyl-5-oxo-1,4,5,6,7,8-hexahydroquinoline-3-carboxylate], 0.10. As to `COc1ccccc1[C@@H]1CC(=O)C2=C(C1)NC(C)=C(C(=O)OC[C@@H]1CCCO1)[C@@H]2c1cccc(O)c1` [12f, tetrahydro-2-furanylmethyl-4-(3-hydroxyphenyl)-7-(2-methoxyphenyl)-2-methyl-5-oxo-1,4,5,6,7,8-hexahydro-3-quinolinecarboxylate], the EC50 in the experiment with RBL cells was above 2000 nM; with coronin 1 promoter (RBL, flow cytometry) it was 2500 nM. `CCCCCCOCCOCCOCCOC(=O)C1=C(C)NC2=C(C(=O)C[C@H](c3ccccc3OC)C2)[C@@H]1c1cccc(O)c1` [65a, 2-(2-(2-(hexyloxy)ethoxy)ethoxy)ethyl (4S, 7R)-4-(3-hydroxyphenyl)-7-(2-methoxyphenyl)-2-methyl-5-oxo-1,4,5,6,7,8-hexahydroquinoline-3-carboxylate]: the “rel. potency GFP inhibition” value with coronin 1 promoter was determined as 0.12. For the compound `COc1ccccc1[C@H]1CC(=O)C2=C(C1)NC(C)=C(C(=O)O[C@@H]1CCOC1)[C@H]2c1cccc(O)c1` [50b, tetrahydrofuran-3-yl (4S, 7R)-4-(3-hydroxyphenyl)-7-(2-methoxyphenyl)-2-methyl-5-oxo-1,4,5,6,7,8-hexahydroquinoline-3-carboxylate], in the experiment with coronin 1 promoter, the “rel. potency GFP inhibition” value turned out to be 1.23. Still for that read-out and setting: with `CCOCCOCCOC(=O)C1=C(C)NC2=C(C(=O)C[C@H](c3ccccc3OC)C2)[C@@H]1c1cccc(O)c1` [64a, 2-(2-ethoxyethoxy)ethyl (4S, 7R)-4-(3-hydroxyphenyl)-7-(2-methoxyphenyl)-2-methyl-5-oxo-1,4,5,6,7,8-hexahydroquinoline-3-carboxylate] the figure was 0.62. As for `COc1ccccc1C1CC(=O)C2=C(C1)NC(C)=C(C(=O)OCC1CC(C)(C)OC(C)(C)C1)C2c1cccc(O)c1` (stereo not shown) [compound 19, (2,2,6,6-tetramethyltetrahydro-2H-pyran-4-yl)methyl 4-(3-hydroxyphenyl)-7-(2-methoxyphenyl)-2-methyl-5-oxo-1,4,5,6,7,8-hexahydroquinoline-3-carboxylate], the EC50 with RBL cells was above 2500 nM; in the experiment on coronin 1 promoter (RBL, flow cytometry), 160 nM.

`COc1ccccc1[C@H]1CC(=O)C2=C(C1)NC(C)=C(C(=O)OC1CCCC1)[C@H]2c1cccc(O)c1` [56a, cyclopentyl (4S, 7R)-4-(3-hydroxyphenyl)-7-(2-methoxyphenyl)-2-methyl-5-oxo-1,4,5,6,7,8-hexahydroquinoline-3-carboxylate]: the “rel. potency GFP inhibition” value in the experiment on coronin 1 promoter was determined as 0.21. The same measure, in the same setting: as for `COc1ccccc1[C@@H]1CC(=O)C2=C(C1)NC(C)=C(C(=O)OC1CCOCC1)[C@H]2c1cccc(O)c1` [13e, tetrahydro-2H-pyran-4-yl-4-(3-hydroxyphenyl)-7-(2-methoxyphenyl)-2-methyl-5-oxo-1,4,5,6,7,8-hexahydro-3-quinolinecarboxylate], the figure is below 0.01. On to `CCCCOC(=O)C1=C(C)NC2=C(C(=O)C[C@H](c3ccccc3OC)C2)[C@@H]1c1cccc(O)c1` [59a, butyl (4S, 7R)-4-(3-hydroxyphenyl)-7-(2-methoxyphenyl)-2-methyl-5-oxo-1,4,5,6,7,8-hexahydroquinoline-3-carboxylate], for which the “rel. potency GFP inhibition” value in the experiment with coronin 1 promoter was 0.18.

Regarding `COc1ccccc1[C@H]1CC(=O)C2=C(C1)NC(C)=C(C(=O)OC1CCCCC1)[C@H]2c1cccc(O)c1` [57a, cyclohexyl (4S, 7R)-4-(3-hydroxyphenyl)-7-(2-methoxyphenyl)-2-methyl-5-oxo-1,4,5,6,7,8-hexahydroquinoline-3-carboxylate], the “rel. potency GFP inhibition” value in the experiment with coronin 1 promoter is listed as 0.24. Turning to `CCOC(=O)C1=C(COCCN)NC(C)=C(C(=O)OC)C1c1ccccc1Cl` (stereo not shown) [Amlodipine, reference compound], the “coronin 1 promoter activity as assessed by GFP reduction” value in the experiment with coronin 1 promoter (Amlodipine 3.125 μM, verapamil 8 μM, 48 h, flow cytometry) was “no effect”. As to `COc1ccccc1[C@H]1CC(=O)C2=C(C1)NC(C)=C(C(=O)OC1(C)CCOCC1)[C@H]2c1cccc(O)c1` [51a, 4-methyltetrahydro-2H-pyran-4-yl (4S, 7R)-4-(3-hydroxyphenyl)-7-(2-methoxyphenyl)-2-methyl-5-oxo-1,4,5,6,7,8-hexahydroquinoline-3-carboxylate], in the experiment with coronin 1 promoter, the “rel. potency GFP inhibition” value was determined as 1.13.
